How the values were obtained:
[1] = target: T1, MetA (HSAT, homoserine acetyl transferase, Rv3341) (Mycobacterium tuberculosis, UniProt P9WJY9); assay: endpoint DTNB CoA release assay; assay type: biochemical; details: read-out: % inhibition at 100 μM
T1 construct: gene metXA

[2] = target: T1, MetA (HSAT, homoserine acetyl transferase, Rv3341); assay: ThermoFluor, SYPRO Orange; assay type: binding

T1 sequence (P9WJY9 whole entry, looked up): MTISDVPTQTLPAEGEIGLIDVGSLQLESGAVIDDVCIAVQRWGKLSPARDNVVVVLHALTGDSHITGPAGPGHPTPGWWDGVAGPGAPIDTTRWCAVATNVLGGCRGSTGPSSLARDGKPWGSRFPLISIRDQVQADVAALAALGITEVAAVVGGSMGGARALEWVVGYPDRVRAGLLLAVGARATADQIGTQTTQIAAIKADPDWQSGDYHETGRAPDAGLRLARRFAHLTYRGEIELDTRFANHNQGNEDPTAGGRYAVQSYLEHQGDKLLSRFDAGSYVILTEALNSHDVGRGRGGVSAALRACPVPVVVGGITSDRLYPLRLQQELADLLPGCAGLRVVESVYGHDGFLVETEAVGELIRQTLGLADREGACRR

Row | Compound | inhibition at 100 µM [1] | Kd [2]
1 | CN(C)C(=S)SSC(=S)N(C)C [NSC1771, thiram] | > 50% | 
2 | CCN(CC)C(=S)SSC(=S)N(CC)CC [DIS, disulfiram] | > 50% | 52.7 µM
